Source: patent US20220226321A1, “INHIBITOR OF MNK FOR THE TREATMENT OF NEUROPATHIC PAIN” (Board of Regents, The University of Texas System, priority 2019, published 2022)

Key:
DRG neurons = settings: prior work; cited from earlier work
mice [1] = settings: Moy et al. (2017); cited from earlier work
mice [2] = test: mechanical paw withdrawal threshold (von Frey) after type I IFN or poly (I:C); format: in vivo, mouse; settings: 1 mg/kg i.p. for 2 consecutive days, 3-24 h after second administration
Protocol: (§1) Behavior. Mice were housed on 12-hour light/dark cycles with food and water available ad libitum. Mice were randomized to groups from multiple cages to avoid using mice from experimental groups that were cohabitating. Sample size was estimated by performing a power calculation using G*Power (version 3.1.9.2). With 80% power and an expectation of d=2.2 effect size in behavioral experiments, and a set to 0.05, the sample size required was calculated as n=6 per group. The inventors therefore sought to have at least n=6 sample in all behavioral experiments. SD (set at 0.3) for the power calculation was based on previously published mechanical threshold data from the inventors' lab (Moy et al., 2017). Animals were habituated for 1 hour to clear acrylic behavioral chambers before beginning the experiment. For intraplantar injections, drugs were injected in a total volume of 25 μL through a 30-gauge needle. For intraperitoneal injections, drugs were administered in a volume of 100 μL Mechanical paw withdrawal thresholds in mice were measured using the up-down method (Chaplan et al., 1994) with calibrated von Frey filaments (Stoelting Company, WoodDale, Ill.). Thermal latency was measured using a Hargreaves device (IITC Life Science) (Hargreaves et al., 1988) with heated glass settings of 29° C., 40% active laser power, and 20 sec cutoff were used. The experimenter was blinded to the genotype of the mice and the drug condition in all experiments.

mice [3] = test: thermal latency (Hargreaves) after type I IFN or poly (I:C); format: in vivo, mouse; settings: 1 mg/kg i.p. for 2 consecutive days, 3-24 h after second administration
Protocol: as §1

cultured DRG neurons = test: Western blot of cultured DRG neurons treated with IFN-α, IFN-β, ISRIB or poly (I:C); format: cell-based, mouse; settings: direct application 10 μg/mL
Protocol: Primary cell culture of mouse DRG neurons and Western blot. Cultured primary DRG neurons were used to test the effects of IFN-α [(300 units (U)/mL] and IFN-β [(300 units (U)/mL] application. For these experiments, mice were anesthetized with isoflurane and killed by decapitation. Then DRGs, from all spinal levels, were dissected and placed in chilled Hanks balanced-salt solution (HBSS, Invitrogen) until processed. Dorsal root ganglia were digested in 1 mg/mL collagenase A (Roche, Mannheim, Germany) for 25 minutes at 37° C. then subsequently digested in a 1:1 mixture of 1 mg/mL collagenase D and papain (Roche) for 20 minutes at 37° C. After this step, dorsal root ganglia were then triturated in a 1:1 mixture of 1 mg/mL trypsin inhibitor (Roche) and bovine serum albumin (BioPharm Laboratories, Bluffdale, Utah), then filtered through a 70 μm cell strainer (Corning, N.Y.). Cells were pelleted then resuspended in DMEM/F12 with GlutaMAX (Thermo Fisher Scientific, MA) containing 10% fetal bovine serum (FBS; Thermo Fisher Scientific), 5 ng/mL NGF, 1% penicillin and streptomycin, and […] to inhibit mitosis of non-neuronal cells and were distributed evenly in a 6-well plate coated with poly-D-lysine (Becton Dickinson, NJ). DRG neurons were maintained in a 37° C. incubator containing 5% CO2 with a media change every other day. On day 6, DRG neurons were treated with either vehicle, IFN-α or IFN-β for 1, 3, 6 and 24 h. Following treatments, cells were rinsed with chilled 1×PBS buffer, harvested in 200 μL of RIPA lysis buffer (50 mM Tris, pH 7.4, 150 mM NaCl, 1 mM EDTA, pH 8.0, and 1% Triton X-100) containing protease and phosphatase inhibitors (Sigma-Aldrich), and then sonicated for 5 seconds. To clear debris, samples were centrifuged at 14,000 rpm for 15 min at 4° C. Ten to 15 μg of protein was loaded into each well and separated by a 10% SDS-PAGE gel. Proteins were transferred to a 0.45 PVDF membrane (Millipore, MA) at 30 V overnight at 4° C. Subsequently, membranes were blocked with 5% non-fat dry milk in 1× Tris buffer solution containing Tween 20 (TTBS) for at least 2 h. Membranes were washed 3 times for 10 minutes each (3×10) in 1×TTBS, then incubated with primary antibodies overnight at 4° C. The following day, membranes were washed 3×10 each then incubated with the corresponding secondary antibodies at room temperature for 1 h. After incubation, membranes were washed with 1×TTBS 3×10 each. Signals were detected using Immobilon Western Chemiluminescent HRP Substrate (Millipore) and then visualized with Bio-Rad ChemiDoc Touch. Membranes were stripped using Restore Western Blot Stripping buffer (Thermo Fisher Scientific) and reprobed with another antibody. Analysis was performed using Image lab 6.0.1 software for Mac (Bio-Rad, Hercules, Calif.).

[4] = body temperature after intraperitoneal poly (I:C); format: in vivo, mouse; settings: 1 mg/kg i.p.
eIF4E = test: immunohistochemistry of p-eIF4E and eIF4E in L5 DRGs; format: in vivo, mouse; settings: WT mice, day 2, 3 hr post 2nd injection
Protocol: For tissues, animals were anesthetized with isoflurane and killed by decapitation, and tissues were frozen in O.C.T. on dry ice. Spinal cords were pressure ejected using chilled 1×PBS. Sections of L4-L5 DRGs ([…]) were mounted onto SuperFrost Plus slides (Thermo Fisher Scientific) and fixed in ice-cold 10% formalin in 1×PBS for 1 h then subsequently washed 3×10 each in 1×PBS and processed for immunohistochemistry (IHC). Slides were permeabilized in 50% ethanol for 30 min. After 30 min, slides were washed 3×10 each in 1×PBS. Tissues were blocked for at least 2 h in 1×PBS and 10% NGS. Primary antibodies against NeuN, peripherin, p-eIF4E^S209 and eIF4E were applied and incubated with DRG sections on slides at 4° C. overnight. Immunoreactivity was visualized after 1 h incubation with Alexa Fluor secondary antibodies at room temperature. Images were taken using an Olympus FluoView 1200 confocal microscope. Images are presented as projections of Z stacks, and they are representative of samples taken from 3 animals.

| Compound | IL-6 induced DRG nociceptor excitability (DRG neurons) | cold hypersensitivity induced by peripheral nerve injury (mice [1]) | mechanical hypersensitivity (mice [2]) | thermal hypersensitivity (mice [3]) | p-ERK, p-eIF4E, p-PKR or p-eIF2α (cultured DRG neurons) | core body temperature [4] | phosphorylated eIF4E immunoreactivity in L5 DRGs (eIF4E) | total eIF4E protein in L5 DRGs (eIF4E) |
| --- | --- | --- | --- | --- | --- | --- | --- | --- |
| CC(=O)C1=C(O)C=C2Oc3c(C(N)=O)c(O)cc(O)c3[C@]2(C)C1=O [cercosporamide] | attenuated | reduced | – | – | – | – | – | – |
| poly (I:C) | – | – | developed mechanical hypersensitivity | thermal hypersensitivity | did not increase | increase in core body temperature | increased phosphorylated eIF4E immunoreactivity | without affecting total eIF4E protein |
